Here are results for two compounds from PubChem BioAssay AID1259407 (Chemical Carcinogenesis Research Information System (CCRIS), 2018).

Active and inactive are the calls of the source. No rule for the calls is given here. Where a SMILES comes first, the peptide text is derived from it.

For the data set, the system named is CCRIS mutagenicity, Ames/micronucleus/aberration tests. The data set can be described thus: CCRIS mutagenicity studies.

As for `CC(C)C[C@H](NC(=O)[C@H](Cc1ccccc1)NC(=O)CNC(=O)CN)C(=O)O` (H-GGFL-OH), the mutagenic call by setting is: (Test System: AMES SALMONELLA TYPHIMURIUM, Strain/Indicator: TA98, Metabolic Activation: NONE, Method: STANDARD PLATE) “inactive; negative”; (Test System: AMES SALMONELLA TYPHIMURIUM, Strain/Indicator: TA98, Metabolic Activation: RAT, LIVER, S-9, AROCLOR 1254, Method: STANDARD PLATE) “inactive; negative”; (Test System: AMES SALMONELLA TYPHIMURIUM, Strain/Indicator: TA100, Metabolic Activation: NONE, Method: STANDARD PLATE) “inactive; negative”; (Test System: AMES SALMONELLA TYPHIMURIUM, Strain/Indicator: TA100, Metabolic Activation: RAT, LIVER, S-9, AROCLOR 1254, Method: STANDARD PLATE) “inactive; negative”; (Test System: AMES SALMONELLA TYPHIMURIUM, Strain/Indicator: TA1535, Metabolic Activation: NONE, Method: STANDARD PLATE) “inactive; negative”; (Test System: AMES SALMONELLA TYPHIMURIUM, Strain/Indicator: TA1535, Metabolic Activation: RAT, LIVER, S-9, AROCLOR 1254, Method: STANDARD PLATE) “inactive; negative”. Besides, the mutagenic call reads like this: (Test System: AMES SALMONELLA TYPHIMURIUM, Strain/Indicator: TA1537, Metabolic Activation: NONE, Method: STANDARD PLATE) “inactive; negative”; (Test System: AMES SALMONELLA TYPHIMURIUM, Strain/Indicator: TA1537, Metabolic Activation: RAT, LIVER, S-9, AROCLOR 1254, Method: STANDARD PLATE) “inactive; negative”.

In the case of `CCN(Cc1cccc(S(=O)(=O)[O-])c1)c1ccc(C(=C2C=CC(=[N+](C)C)C=C2)c2ccc(N(CC)Cc3cccc(S(=O)(=O)O)c3)cc2)cc1`, the mutagenic call is “active; positive” (Test System: AMES SALMONELLA TYPHIMURIUM, Strain/Indicator: TA98, Metabolic Activation: HAMSTER, LIVER, S-9, AROCLOR 1254 (30%), Method: PREINCUBATION); “inactive; negative” (Test System: AMES SALMONELLA TYPHIMURIUM, Strain/Indicator: TA98, Metabolic Activation: NONE, Method: PREINCUBATION); “active; positive” (Test System: AMES SALMONELLA TYPHIMURIUM, Strain/Indicator: TA98, Metabolic Activation: RAT, LIVER, S-9, AROCLOR 1254 (30%), Method: PREINCUBATION); “active; positive” (Test System: AMES SALMONELLA TYPHIMURIUM, Strain/Indicator: TA98, Metabolic Activation: RAT, LIVER, S-9, KC500 OR PHENOBARBITAL, Method: LIQUID SUSPENSION); “inactive; negative” (Test System: AMES SALMONELLA TYPHIMURIUM, Strain/Indicator: TA100, Metabolic Activation: HAMSTER, LIVER, S-9, AROCLOR 1254 (30%), Method: PREINCUBATION); “inactive; negative” (Test System: AMES SALMONELLA TYPHIMURIUM, Strain/Indicator: TA100, Metabolic Activation: NONE, Method: PREINCUBATION). Also, the mutagenic call is, setting by setting: (Test System: AMES SALMONELLA TYPHIMURIUM, Strain/Indicator: TA100, Metabolic Activation: RAT, LIVER, S-9, AROCLOR 1254 (30%), Method: PREINCUBATION) “inactive; negative”; (Test System: Mouse lymphoma, Strain/Indicator: L5178Y (tk+/tk-), Metabolic Activation: None, Method: Suspension/plate) “active; positive”; (Test System: Mouse lymphoma, Strain/Indicator: L5178Y (tk+/tk-), Metabolic Activation: Rat,Liver, S-9, Aroclor 1254, Method: Suspension/plate) “inactive; negative”.
